Measured values: ChEMBL document CHEMBL1156313, “Structure-activity relationship of novel DAPK inhibitors identified by structure-based virtual screening” (Bioorg Med Chem, 2010)

Legend:
[1] = molecular target: T1, Death-associated protein kinase 3 (Homo sapiens, UniProt O43293); assay: Inhibition of human recombinant DAPK3 at 10 uM
Target sequence in this assay (O43293 whole entry, looked up): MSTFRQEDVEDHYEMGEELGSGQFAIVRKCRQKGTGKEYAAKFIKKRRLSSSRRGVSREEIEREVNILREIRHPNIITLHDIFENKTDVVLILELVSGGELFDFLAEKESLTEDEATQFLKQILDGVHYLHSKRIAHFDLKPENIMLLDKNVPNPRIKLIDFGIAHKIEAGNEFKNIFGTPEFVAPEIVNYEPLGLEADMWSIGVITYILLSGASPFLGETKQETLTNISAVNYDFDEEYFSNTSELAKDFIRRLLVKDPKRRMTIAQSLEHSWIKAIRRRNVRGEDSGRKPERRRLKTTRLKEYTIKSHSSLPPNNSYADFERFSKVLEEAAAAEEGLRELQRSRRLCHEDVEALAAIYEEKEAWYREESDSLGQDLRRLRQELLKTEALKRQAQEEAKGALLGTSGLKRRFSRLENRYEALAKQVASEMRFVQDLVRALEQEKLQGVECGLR

[2] = molecular target: T1, Death-associated protein kinase 3; assay: Inhibition of human recombinant DAPK3 at 1 uM
Target sequence in this assay (O43293 whole entry, looked up): as above

[3] = molecular target: T1, Death-associated protein kinase 3; assay: Inhibition of human recombinant DAPK3
Target sequence in this assay (O43293 whole entry): as the sequence (O43293 whole entry, looked up) above

[4] = molecular target: Death-associated protein kinase 1 (Homo sapiens) (UniProt P53355); assay: Inhibition of DAPK1 at 10 uM
[5] = molecular target: MAP kinase-activated protein kinase 2 (Homo sapiens) (UniProt P49137); assay: Inhibition of MAPKAPK2 at 10 uM
[6] = molecular target: T2, Aurora kinase A (Homo sapiens) (UniProt O14965); assay: Inhibition of Aurora A at 10 uM
T2 sequence (whole entry): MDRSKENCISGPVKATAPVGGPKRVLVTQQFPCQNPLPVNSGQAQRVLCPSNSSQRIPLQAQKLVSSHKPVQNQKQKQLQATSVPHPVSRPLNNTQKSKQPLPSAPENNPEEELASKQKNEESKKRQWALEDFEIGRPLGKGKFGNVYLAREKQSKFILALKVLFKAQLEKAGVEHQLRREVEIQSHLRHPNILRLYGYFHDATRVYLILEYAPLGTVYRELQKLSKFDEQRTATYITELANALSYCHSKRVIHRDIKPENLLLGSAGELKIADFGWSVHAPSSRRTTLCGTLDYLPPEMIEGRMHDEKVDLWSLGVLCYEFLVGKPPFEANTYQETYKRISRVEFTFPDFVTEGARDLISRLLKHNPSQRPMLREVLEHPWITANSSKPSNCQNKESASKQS

[7] = molecular target: T3, Protein kinase C zeta type (Homo sapiens) (UniProt Q05513); assay: Inhibition of PKCzeta at 10 uM
T3 sequence (whole entry): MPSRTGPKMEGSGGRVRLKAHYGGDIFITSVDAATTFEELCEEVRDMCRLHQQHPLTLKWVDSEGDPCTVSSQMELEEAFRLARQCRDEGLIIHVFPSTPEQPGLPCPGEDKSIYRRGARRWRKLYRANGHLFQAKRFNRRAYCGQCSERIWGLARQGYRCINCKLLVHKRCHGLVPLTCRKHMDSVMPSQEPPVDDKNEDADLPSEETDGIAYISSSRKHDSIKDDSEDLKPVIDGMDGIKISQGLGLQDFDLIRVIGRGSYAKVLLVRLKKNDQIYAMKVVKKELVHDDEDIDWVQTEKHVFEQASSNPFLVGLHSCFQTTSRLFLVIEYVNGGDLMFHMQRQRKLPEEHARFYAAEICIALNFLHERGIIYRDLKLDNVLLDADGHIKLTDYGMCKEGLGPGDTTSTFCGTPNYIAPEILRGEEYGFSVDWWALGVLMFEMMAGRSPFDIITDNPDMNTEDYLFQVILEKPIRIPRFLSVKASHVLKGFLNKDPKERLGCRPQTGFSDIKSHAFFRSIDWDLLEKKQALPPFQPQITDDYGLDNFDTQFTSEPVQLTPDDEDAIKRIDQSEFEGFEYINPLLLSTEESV

[8] = molecular target: Ribosomal protein S6 kinase alpha-1 (Homo sapiens) (UniProt Q15418); assay: Inhibition of RSK1 at 10 uM
[9] = molecular target: MAP kinase-activated protein kinase 5 (Homo sapiens) (UniProt Q8IW41); assay: Inhibition of PRAK at 10 uM
[10] = molecular target: Mitogen-activated protein kinase 3 (Homo sapiens) (UniProt P27361); assay: Inhibition of ERK1 at 10 uM
[11] = molecular target: T4, Serine/threonine-protein kinase D2 (Homo sapiens) (UniProt Q9BZL6); assay: Inhibition of PKD2 at 10 uM
T4 sequence (whole entry): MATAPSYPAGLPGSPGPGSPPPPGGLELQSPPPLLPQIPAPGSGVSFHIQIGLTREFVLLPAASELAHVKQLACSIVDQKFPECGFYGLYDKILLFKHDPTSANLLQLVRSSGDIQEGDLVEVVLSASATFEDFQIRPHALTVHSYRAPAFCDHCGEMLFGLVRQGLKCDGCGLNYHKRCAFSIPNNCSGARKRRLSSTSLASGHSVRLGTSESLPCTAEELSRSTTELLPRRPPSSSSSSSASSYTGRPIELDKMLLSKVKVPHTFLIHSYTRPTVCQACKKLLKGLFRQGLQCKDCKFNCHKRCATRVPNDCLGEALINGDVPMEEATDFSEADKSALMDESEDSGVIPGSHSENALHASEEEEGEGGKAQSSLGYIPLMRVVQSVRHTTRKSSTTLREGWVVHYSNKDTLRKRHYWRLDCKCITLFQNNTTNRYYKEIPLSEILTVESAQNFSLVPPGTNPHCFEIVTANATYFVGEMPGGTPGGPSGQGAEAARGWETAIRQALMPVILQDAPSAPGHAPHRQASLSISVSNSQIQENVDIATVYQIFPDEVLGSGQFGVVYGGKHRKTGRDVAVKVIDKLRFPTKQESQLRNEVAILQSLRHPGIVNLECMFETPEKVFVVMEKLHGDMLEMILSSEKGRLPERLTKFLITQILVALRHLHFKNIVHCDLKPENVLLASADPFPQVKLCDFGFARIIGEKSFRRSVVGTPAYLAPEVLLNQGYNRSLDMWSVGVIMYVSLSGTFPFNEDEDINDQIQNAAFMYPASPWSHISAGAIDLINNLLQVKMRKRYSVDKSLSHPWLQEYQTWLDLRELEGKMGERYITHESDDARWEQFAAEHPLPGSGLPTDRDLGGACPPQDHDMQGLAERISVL

[12] = molecular target: T5, Serine/threonine-protein kinase Chk1 (Homo sapiens) (UniProt O14757); assay: Inhibition of CHK1 at 10 uM
T5 sequence (whole entry): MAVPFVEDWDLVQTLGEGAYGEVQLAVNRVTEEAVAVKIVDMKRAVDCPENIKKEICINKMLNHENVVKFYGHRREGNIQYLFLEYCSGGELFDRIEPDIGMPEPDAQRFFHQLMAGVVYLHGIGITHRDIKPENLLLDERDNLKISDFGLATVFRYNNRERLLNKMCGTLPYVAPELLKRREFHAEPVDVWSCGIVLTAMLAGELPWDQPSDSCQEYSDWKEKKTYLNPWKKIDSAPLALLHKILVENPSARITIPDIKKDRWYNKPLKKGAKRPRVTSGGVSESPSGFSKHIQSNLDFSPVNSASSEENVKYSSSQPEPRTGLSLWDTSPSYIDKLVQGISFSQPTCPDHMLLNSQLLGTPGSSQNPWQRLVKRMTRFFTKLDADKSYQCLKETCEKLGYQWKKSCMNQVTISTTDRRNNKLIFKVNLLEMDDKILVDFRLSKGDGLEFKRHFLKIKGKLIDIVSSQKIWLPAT

[13] = molecular target: Tyrosine-protein kinase ABL1 (Homo sapiens) (UniProt P00519); assay: Inhibition of ABL at 10 uM
[14] = molecular target: Tyrosine-protein kinase Fyn (Homo sapiens) (UniProt P06241); assay: Inhibition of FYN at 10 uM
[15] = molecular target: Tyrosine-protein kinase Lyn (Homo sapiens) (UniProt P07948); assay: Inhibition of LYN at 10 uM
[16] = molecular target: Serine/threonine-protein kinase Chk2 (Homo sapiens) (UniProt O96017); assay: Inhibition of CHK2 at 10 uM
[17] = molecular target: Proto-oncogene tyrosine-protein kinase Src (Homo sapiens) (UniProt P12931); assay: Inhibition of SRC at 10 uM
[18] = Inhibition of PKA at 10 uM
[19] = molecular target: RAC-beta serine/threonine-protein kinase (Homo sapiens) (UniProt P31751); assay: Inhibition of AKT2 at 10 uM
[20] = molecular target: Insulin receptor (Homo sapiens) (UniProt P06213); assay: Inhibition of INSR at 10 uM
[21] = molecular target: Mitogen-activated protein kinase 14 (Homo sapiens) (UniProt Q16539); assay: Inhibition of P38alpha at 10 uM
[22] = molecular target: RAC-alpha serine/threonine-protein kinase (Homo sapiens) (UniProt P31749); assay: Inhibition of AKT1 at 10 uM
[23] = molecular target: Tyrosine-protein kinase Lck (Homo sapiens) (UniProt P06239); assay: Inhibition of LCK at 10 uM
[24] = molecular target: Glycogen synthase kinase-3 beta (Homo sapiens) (UniProt P49841); assay: Inhibition of GSK3-beta at 10 uM
[25] = molecular target: Mitogen-activated protein kinase 1 (Homo sapiens) (UniProt P28482); assay: Inhibition of ERK2 at 10 uM
[26] = molecular target: Ribosomal protein S6 kinase alpha-5 (Homo sapiens) (UniProt O75582); assay: Inhibition of MSK1 at 10 uM
[27] = molecular target: Hepatocyte growth factor receptor (Homo sapiens) (UniProt P08581); assay: Inhibition of MET at 10 uM

Chain of Ribosomal protein S6 kinase alpha-1 (Homo sapiens) (Q15418 whole entry): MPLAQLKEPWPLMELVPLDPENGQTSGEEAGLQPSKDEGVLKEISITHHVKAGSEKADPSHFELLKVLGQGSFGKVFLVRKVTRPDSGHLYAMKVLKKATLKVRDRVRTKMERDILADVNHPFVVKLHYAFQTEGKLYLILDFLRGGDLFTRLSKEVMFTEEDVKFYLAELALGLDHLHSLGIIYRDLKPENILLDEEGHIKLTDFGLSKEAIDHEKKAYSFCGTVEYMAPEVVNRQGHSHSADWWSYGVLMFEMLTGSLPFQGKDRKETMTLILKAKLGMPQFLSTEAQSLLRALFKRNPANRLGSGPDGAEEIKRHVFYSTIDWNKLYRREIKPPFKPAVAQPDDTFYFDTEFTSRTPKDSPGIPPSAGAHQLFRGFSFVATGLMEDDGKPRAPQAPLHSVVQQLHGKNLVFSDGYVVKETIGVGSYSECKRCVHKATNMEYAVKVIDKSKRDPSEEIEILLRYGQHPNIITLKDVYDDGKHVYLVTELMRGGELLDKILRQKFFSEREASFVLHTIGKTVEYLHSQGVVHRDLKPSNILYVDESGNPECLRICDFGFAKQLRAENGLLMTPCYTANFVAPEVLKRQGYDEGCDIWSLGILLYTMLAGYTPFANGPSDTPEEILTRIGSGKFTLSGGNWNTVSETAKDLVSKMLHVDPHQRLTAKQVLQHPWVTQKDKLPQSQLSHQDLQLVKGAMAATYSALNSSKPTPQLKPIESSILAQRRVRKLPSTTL
Chain of Glycogen synthase kinase-3 beta (Homo sapiens) (P49841 whole entry, looked up): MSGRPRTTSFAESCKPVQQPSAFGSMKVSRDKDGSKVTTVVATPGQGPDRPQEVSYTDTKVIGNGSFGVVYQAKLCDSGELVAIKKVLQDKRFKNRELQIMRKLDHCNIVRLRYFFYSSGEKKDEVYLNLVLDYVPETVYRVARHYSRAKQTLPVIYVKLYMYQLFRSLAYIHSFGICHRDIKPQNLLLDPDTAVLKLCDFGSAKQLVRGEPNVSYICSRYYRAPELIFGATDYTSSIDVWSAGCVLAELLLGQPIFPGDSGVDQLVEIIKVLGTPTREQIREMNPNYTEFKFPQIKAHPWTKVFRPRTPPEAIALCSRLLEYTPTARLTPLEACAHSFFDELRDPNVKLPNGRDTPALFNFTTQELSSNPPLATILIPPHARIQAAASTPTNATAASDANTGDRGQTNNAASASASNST
Chain of Mitogen-activated protein kinase 3 (Homo sapiens) (P27361 whole entry): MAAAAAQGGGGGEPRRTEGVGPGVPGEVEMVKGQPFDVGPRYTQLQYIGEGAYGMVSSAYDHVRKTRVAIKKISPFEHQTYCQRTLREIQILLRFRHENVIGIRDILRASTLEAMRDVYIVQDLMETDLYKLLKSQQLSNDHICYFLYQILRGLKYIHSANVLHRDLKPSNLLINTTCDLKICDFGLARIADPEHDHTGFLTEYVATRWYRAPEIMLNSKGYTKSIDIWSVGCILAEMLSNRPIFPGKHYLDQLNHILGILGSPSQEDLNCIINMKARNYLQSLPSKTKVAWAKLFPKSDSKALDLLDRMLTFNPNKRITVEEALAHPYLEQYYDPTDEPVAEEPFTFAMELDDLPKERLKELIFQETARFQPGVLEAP
Chain of MAP kinase-activated protein kinase 2 (Homo sapiens) (P49137 whole entry, looked up): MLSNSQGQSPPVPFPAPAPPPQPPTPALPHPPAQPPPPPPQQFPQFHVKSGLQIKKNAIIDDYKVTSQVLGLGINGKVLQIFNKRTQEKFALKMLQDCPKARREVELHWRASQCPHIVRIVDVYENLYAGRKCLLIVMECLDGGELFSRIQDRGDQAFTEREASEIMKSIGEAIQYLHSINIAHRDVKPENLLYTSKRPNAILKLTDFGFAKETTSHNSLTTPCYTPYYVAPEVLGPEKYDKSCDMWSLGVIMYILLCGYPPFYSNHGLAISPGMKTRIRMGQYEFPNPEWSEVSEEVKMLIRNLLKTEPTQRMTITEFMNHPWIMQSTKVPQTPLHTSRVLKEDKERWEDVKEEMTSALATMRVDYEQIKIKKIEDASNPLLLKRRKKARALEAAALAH
Chain of Tyrosine-protein kinase Lyn (Homo sapiens) (P07948 2-512 limits assumed): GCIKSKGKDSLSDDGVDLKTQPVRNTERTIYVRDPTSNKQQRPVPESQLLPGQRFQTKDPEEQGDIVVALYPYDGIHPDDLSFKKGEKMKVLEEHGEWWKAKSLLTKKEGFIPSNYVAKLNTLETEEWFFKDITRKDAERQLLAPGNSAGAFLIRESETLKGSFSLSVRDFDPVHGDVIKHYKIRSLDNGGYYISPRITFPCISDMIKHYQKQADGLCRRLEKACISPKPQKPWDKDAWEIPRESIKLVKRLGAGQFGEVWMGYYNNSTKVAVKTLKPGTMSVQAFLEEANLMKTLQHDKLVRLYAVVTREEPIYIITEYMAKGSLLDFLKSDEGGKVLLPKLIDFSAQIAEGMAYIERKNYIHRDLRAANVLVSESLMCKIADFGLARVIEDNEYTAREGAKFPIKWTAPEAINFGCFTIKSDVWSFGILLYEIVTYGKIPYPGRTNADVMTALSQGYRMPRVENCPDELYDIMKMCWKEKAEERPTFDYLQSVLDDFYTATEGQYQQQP
Chain of RAC-alpha serine/threonine-protein kinase (Homo sapiens) (P31749 whole entry): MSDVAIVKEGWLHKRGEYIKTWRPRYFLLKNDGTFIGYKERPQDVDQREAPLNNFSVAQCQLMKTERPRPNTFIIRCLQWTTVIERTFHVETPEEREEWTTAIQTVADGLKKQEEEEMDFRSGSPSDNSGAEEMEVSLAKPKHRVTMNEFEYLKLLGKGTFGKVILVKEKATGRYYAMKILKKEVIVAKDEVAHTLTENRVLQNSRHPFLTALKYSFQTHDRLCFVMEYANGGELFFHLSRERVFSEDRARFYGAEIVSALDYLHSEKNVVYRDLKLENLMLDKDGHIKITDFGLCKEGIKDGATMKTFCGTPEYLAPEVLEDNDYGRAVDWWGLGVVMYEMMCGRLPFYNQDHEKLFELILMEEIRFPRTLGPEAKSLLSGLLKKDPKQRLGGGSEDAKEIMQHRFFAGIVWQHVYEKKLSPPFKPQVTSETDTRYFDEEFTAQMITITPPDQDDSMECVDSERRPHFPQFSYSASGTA
Chain of Serine/threonine-protein kinase Chk2 (Homo sapiens) (O96017 whole entry): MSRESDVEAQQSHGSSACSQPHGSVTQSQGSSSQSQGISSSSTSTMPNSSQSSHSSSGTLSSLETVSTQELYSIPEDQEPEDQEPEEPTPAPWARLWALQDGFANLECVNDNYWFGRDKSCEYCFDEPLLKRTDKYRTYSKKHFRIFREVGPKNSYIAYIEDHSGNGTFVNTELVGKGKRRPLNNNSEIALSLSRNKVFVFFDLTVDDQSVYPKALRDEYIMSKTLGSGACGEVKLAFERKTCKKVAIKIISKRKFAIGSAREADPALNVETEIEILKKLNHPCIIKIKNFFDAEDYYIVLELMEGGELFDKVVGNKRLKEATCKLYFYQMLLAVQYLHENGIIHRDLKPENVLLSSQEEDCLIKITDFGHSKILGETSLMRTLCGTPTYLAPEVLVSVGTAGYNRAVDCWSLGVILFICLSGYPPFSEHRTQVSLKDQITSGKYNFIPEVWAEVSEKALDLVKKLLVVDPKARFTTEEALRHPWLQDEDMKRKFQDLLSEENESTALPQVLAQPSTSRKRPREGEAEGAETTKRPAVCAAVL
Chain of Tyrosine-protein kinase Fyn (Homo sapiens) (P06241 2-537 limits assumed): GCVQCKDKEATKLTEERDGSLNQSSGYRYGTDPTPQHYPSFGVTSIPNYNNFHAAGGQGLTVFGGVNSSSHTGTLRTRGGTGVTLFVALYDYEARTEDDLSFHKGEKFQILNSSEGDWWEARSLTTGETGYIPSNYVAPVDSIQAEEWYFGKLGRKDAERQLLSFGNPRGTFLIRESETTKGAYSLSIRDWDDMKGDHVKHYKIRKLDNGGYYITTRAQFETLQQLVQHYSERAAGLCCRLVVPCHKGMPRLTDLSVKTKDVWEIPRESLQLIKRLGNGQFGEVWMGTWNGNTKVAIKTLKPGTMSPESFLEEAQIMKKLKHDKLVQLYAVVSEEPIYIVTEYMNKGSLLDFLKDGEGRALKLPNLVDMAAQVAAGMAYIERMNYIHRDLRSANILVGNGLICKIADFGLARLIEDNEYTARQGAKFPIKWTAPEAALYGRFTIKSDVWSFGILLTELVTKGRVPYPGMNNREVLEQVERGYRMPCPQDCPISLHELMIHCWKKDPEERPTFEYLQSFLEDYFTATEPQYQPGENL
Chain of Mitogen-activated protein kinase 14 (Homo sapiens) (Q16539 whole entry): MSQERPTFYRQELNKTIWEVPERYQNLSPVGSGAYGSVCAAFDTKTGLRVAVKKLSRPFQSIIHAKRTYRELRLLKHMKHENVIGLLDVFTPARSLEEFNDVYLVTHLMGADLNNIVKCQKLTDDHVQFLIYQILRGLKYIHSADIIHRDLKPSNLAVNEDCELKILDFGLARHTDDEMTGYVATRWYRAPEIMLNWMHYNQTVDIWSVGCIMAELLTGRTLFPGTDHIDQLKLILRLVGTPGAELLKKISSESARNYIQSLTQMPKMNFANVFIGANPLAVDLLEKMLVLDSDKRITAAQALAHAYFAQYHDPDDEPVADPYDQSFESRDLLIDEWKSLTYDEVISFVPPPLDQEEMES

In the case of `Cc1cc(C2=N/C(=C\c3cccnc3)C(=O)O2)ccc1Br`, the inhibition [1] is reported as 94%, the inhibition [2] is reported as 88% and the IC50 [3] is reported as 278 nM. The inhibition [4] was 82%, the inhibition [5] was 2% and the inhibition [6] was 16%. The inhibition [7] was 5%, the inhibition [8] was 13% and the inhibition [9] was 10%. The inhibition [10] was 18%, the inhibition [11] was 11% and the inhibition [12] was 5%. It also gave an inhibition [13] of 7%, an inhibition [14] of 9% and an inhibition [15] of 0%. The inhibition [16] was 19%, the inhibition [17] was 2% and the inhibition [18] was 19%. The inhibition [19] was 28%, the inhibition [20] was 0% and the inhibition [21] was 5%. The inhibition [22] was 12%.

In the case of `O=C1OC(c2ccc(Cl)cc2)=N/C1=C\c1cccnc1`, the inhibition [1] is reported as 96%, the inhibition [2] is reported as 85% and the IC50 [3] is reported as 529 nM. For the same molecule, the inhibition [4] was 76%, the inhibition [6] was 15% and the inhibition [7] was -3%. For the same molecule, the inhibition [8] was 10%, the inhibition [10] was 25% and the inhibition [11] was 17%. It also gave an inhibition [12] of 12%, an inhibition [16] of 24% and an inhibition [23] of 8%. It also gave an inhibition [17] of 3%, an inhibition [24] of 7% and an inhibition [25] of 10%. For the same molecule, the inhibition [18] was 9%, the inhibition [19] was 17% and the inhibition [21] was 2%. The inhibition [22] was 13% and the inhibition [26] was 0%.

Work on `O=C1OC(c2ccccc2)=N/C1=C\c1cccnc1` yielded an IC50 [3] of 583 nM, an inhibition [4] of 98% and an inhibition [5] of 5%. For the same molecule, the inhibition [6] was 6%, the inhibition [7] was 3% and the inhibition [8] was 5%. It also gave an inhibition [10] of 16%, an inhibition [11] of 7% and an inhibition [12] of 3%. The inhibition [13] was 16%, the inhibition [14] was 6% and the inhibition [15] was 10%. The inhibition [16] was 4%, the inhibition [27] was 3% and the inhibition [23] was 9%. For the same molecule, the inhibition [17] was 13%, the inhibition [24] was 9% and the inhibition [25] was 7%. For the same molecule, the inhibition [19] was 13%, the inhibition [20] was 7% and the inhibition [21] was 3%. It also gave an inhibition [22] of 12%.

Work on `O=C1OC(/C=C/c2ccccc2)=NC/1=C\c1cccnc1` yielded an inhibition [1] of 100%, an inhibition [4] of 91% and an inhibition [5] of 46%. For the same molecule, the inhibition [6] was 14%, the inhibition [7] was 3% and the inhibition [8] was 4%. For the same molecule, the inhibition [9] was 5%, the inhibition [10] was 7% and the inhibition [12] was 12%. For the same molecule, the inhibition [13] was 9%, the inhibition [14] was 1% and the inhibition [15] was 1%. For the same molecule, the inhibition [16] was 17%, the inhibition [27] was 3% and the inhibition [23] was 8%. For the same molecule, the inhibition [17] was 5%, the inhibition [24] was 3% and the inhibition [25] was 20%. For the same molecule, the inhibition [19] was 17%, the inhibition [20] was 4% and the inhibition [21] was 8%. The inhibition [22] was 15% and the inhibition [26] was 13%.

`O=C1OC(c2ccc(F)c(F)c2)=N/C1=C\c1cccnc1` gave an inhibition [1] of 98%, an inhibition [2] of 89% and an IC50 [3] of 346 nM. The inhibition [4] was 97%, the inhibition [6] was 8% and the inhibition [7] was 8%. For the same molecule, the inhibition [10] was 25%, the inhibition [11] was 3% and the inhibition [12] was 7%. The inhibition [14] was 2%, the inhibition [15] was 2% and the inhibition [16] was 7%. It also gave an inhibition [23] of 3%, an inhibition [17] of 6% and an inhibition [24] of 0%. It also gave an inhibition [25] of 34%, an inhibition [18] of 2% and an inhibition [19] of 18%. For the same molecule, the inhibition [20] was 7%, the inhibition [21] was 8% and the inhibition [22] was 12%.

`Cc1cccc(C2=N/C(=C\c3cccnc3)C(=O)O2)c1` gave an inhibition [1] of 96%, an inhibition [2] of 68% and an IC50 [3] of 714 nM. The inhibition [4] was 98%, the inhibition [5] was 3% and the inhibition [6] was 3%. For the same molecule, the inhibition [7] was 2%, the inhibition [8] was 15% and the inhibition [10] was 0%. For the same molecule, the inhibition [11] was 1%, the inhibition [12] was 5% and the inhibition [13] was 1%. For the same molecule, the inhibition [17] was 5%, the inhibition [19] was 6% and the inhibition [20] was 3%. The inhibition [21] was 1% and the inhibition [22] was 5%.
